# Measurements as given in US20170196859A1, “PHARMACEUTICAL COMPOSITION COMPRISING PYRAZINE CARBOXAMIDE COMPOUND AS ACTIVE INGREDIENT” (Astellas Pharma Inc., priority 2014, published 2017).
# How the values were obtained:
# [1] = test system: human diffuse large B-cell lymphoma cell line OCI-Ly10 cells; assay: Proliferation inhibition, OCI-Ly10 cells (CellTiter-Glo); assay type: cell-based; conditions: OCI-Ly10, 72 h, 3 days culture, 100% inhibition = value on day of cell seeding
# Procedure: OCI-Ly10 is a cell line originated from human diffuse large B-cell lymphoma, which is a B-cell malignant neoplasm, and the BTK dependency has been confirmed (Nature. 2010; 463:88-92). The human diffuse large B-cell lymphoma cell line OCI-Ly 10 cells (University Health Network) cultured in an Iscove's Modified Dulbecco's Medium (Sigma) containing a 20% bovine serum were seeded into 96 well plates. On the same day, DMSO solutions of the test compound B at a final concentrations from 0.1 nM to 1 μM or only DMSO (DMSO group) were added thereto to culture the cells at 37° C. in 5% CO2 for 3 days. Thereafter, the cell number was measured using a cell counting reagent (CellTiter-Glo (registered trademark) Luminescent Cell Viability Assay (Promega)). The cell proliferation inhibition rate was calculated by the measured value in the DMSO group set as 0% inhibition and the measured value in the DMSO group on day of cell seeding set as 100% inhibition.
# [2] = test system: human acute myeloid leukemia cell line MV4-11 cells; assay: Proliferation inhibition, MV4-11 cells (CellTiter-Glo); assay type: cell-based; conditions: MV4-11, 72 h, 3 days culture
# Procedure: MV4-11 is a cell line originated from human acute myeloid leukemia and the BTK expression has been confirmed (Mol. Cell Proteomics. 2009; 8(7):1751-1764). The human acute myeloid leukemia cell line MV4-11 cells (American Type Culture Collection, CRL-9591) cultured in an Iscove's Modified Dulbecco's Medium (Sigma) contain […] 10% bovine serum were seeded into 96 well plates. On the next day, DMSO solution of the test compound B at final concentrations from 1 nM to 10 μM or only DMSO (DMSO group) were added thereto to culture the cells at 37° C. in 5% CO2 for 3 days. Thereafter, the cell number was measured using a cell counting reagent (CellTiter-Glo (registered trademark) Luminescent Cell Viability Assay (Promega)). The cell proliferation inhibition rate was calculated as the measured value in the DMSO group set as 0% inhibition and the measured value in the well only with the medium on which the cells have not been seeded set as 100% inhibition.
# [3] = test system: OCI-Ly10 subcutaneous xenograft; assay: Anti-tumor evaluation in OCI-Ly10 subcutaneous xenograft mouse model; assay type: in vivo; conditions: for tumor volume after 14 days: control 188 to 520 mm^3
# Procedure: The human diffuse large B-cell lymphoma cell line OCI-Ly10 cells were subcutaneously implanted to a dorsal part of an immunodeficient mouse (NOD.CB 17-Prkdc scid/J, male, 4-week-old (Charles River Laboratories Japan, Inc.)) to prepare an OCI-Ly10 subcutaneous xenograft mouse model. To mice which were divided based on the tumor volumes, 0.5% methylcellulose (control group: 10 mL/kg/day, QD, po (n=4)) or the test compound B (test compound B-administered group: 30 or 100 mg/kg/day in 0.5% methylcellulose suspension, QD, po (n=4)) were administered. The change in the tumor volume was evaluated over time.
# ITK kinase = target: T1, ITK kinase (Homo sapiens, UniProt Q08881); assay: ITK kinase inhibitory activity (Mobility Shift Assay); assay type: biochemical; conditions: ATP 1000 μM, read-out: inhibitory % against ITK kinase activity
# T1 sequence (Q08881 1-620): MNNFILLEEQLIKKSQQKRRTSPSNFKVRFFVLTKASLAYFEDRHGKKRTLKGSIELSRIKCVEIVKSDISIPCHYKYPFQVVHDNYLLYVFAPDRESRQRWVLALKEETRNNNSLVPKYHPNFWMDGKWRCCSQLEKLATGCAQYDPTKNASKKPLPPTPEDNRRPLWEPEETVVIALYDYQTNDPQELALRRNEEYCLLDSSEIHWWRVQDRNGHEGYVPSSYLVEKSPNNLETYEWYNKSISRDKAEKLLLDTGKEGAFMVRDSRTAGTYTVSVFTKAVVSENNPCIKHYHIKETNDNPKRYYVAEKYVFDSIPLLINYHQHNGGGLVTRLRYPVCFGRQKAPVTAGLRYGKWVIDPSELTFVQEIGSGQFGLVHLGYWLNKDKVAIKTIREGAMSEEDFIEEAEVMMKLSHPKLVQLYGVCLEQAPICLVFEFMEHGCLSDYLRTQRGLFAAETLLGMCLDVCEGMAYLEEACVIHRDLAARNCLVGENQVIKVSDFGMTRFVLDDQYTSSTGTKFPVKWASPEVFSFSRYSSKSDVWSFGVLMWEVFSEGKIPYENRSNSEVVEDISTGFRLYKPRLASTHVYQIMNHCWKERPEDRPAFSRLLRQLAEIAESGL
# Procedure: The ITK kinase inhibitory activity was evaluated using Mobility Shift Assay system.
# The test compound B was dissolved in dimethyl sulfoxide (DMSO) to prepare a solution at a 100-fold concentration as compared to the test concentration. The solution was also 25-fold diluted with an assay buffer (20 mM HEPES, 0.01% Triton X-100, 1 mM DTT, pH 7.5) to obtain a test substance solution.
# 5 μL of the test compound B solution at a 4-fold concentration, prepared using the aforementioned assay buffer, and 10 μL of a ITK kinase solution at a 2-fold concentration were mixed within a well of a 384 well plate, and incubated at room temperature for 30 minutes. Continuously, 5 μL of a substrate peptide (Srctide, PEPTIDE INSTITUTE, INC. #AD-995)/ATP/MgCl2 solution at a 4-fold concentration was added thereto to perform the reaction at room temperature for 1 hour. The substrate peptide was used at a final concentration of 1000 nM, ATP at a final concentration of 1000 μM, and MgCl2 at a final concentration of 5 mM. Thereafter, 60 μL of a termination buffer (127 mM HEPES, 0.01% Triton X-100, 26.7 mM EDTA, 1% DMSO, pH 7.5) was added thereto to stop the reaction. The ITK kinase activity was calculated by quantifying a product conversion ratio obtained from the substrate peptide peak height and the product (phosphorylated substrate peptide) peak height with LabChip3000 (PerkinElmer). […]
structure (smiles),measurement,setting,value
"C=CC(=O)N1CC[C@@H](Oc2nc(Nc3ccc(N4CCC(N5CCN(C)CC5)CC4)cc3)c(C(N)=O)nc2CC)C1 [test compound B, 5-{[(3R)-1-acryloylpyrrolidin-3-yl]oxy}-6-ethyl-3-({4-[4-(4-methylpiperazin-1-yl)piperidin-1-yl]phenyl}amino)pyrazine-2-carboxamide monomethanesulfonate]",GI50,[1],1 nM
same,IC50,[2],10 nM
same,tumor volume after 14 days,"[3]; 30 mg/kg/day QD po, 190 mm^3 at start of administration",50 mm^3
same,tumor volume after 14 days,"[3]; 100 mg/kg/day QD po, 184 mm^3 at start of administration",22 mm^3
same,antitumor activity in OCI-Ly10 xenograft mouse model,"[3]; summary statement, 30 and 100 mg/kg/day",remarkable antitumor activity with regression in a dose-dependent manner
same,inhibition at 0.001 µM,ITK kinase; 1 nM test compound,29.5%
same,inhibition at 0.01 µM,ITK kinase; 10 nM test compound,92.6%
